Measured values from PubChem BioAssay AID1224920 (Broad Institute, 2016).
Values joined by “and” are separate entries in the source; they are usually repeats but may differ in a detail not shown here. Equal entries are not always repeated.

System: Clostridium difficile clinical isolate growth, OD600, 24 h
Assay: growth modulation of Clostridium difficile isolate – OD600, 9-point, retest, dose response (AID 1224920);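 further: inhibitors lower culture turbidity so OD600 falls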

Compound	IC50
O=C(C[C@H]1CC[C@@H]2[C@H](COC[C@H](O)CN2C(=O)Nc2ccc(C(F)(F)F)cc2)O1)NCC1CCCCC1	6.15 µM
O=C(Nc1ccc(F)cc1)N1CCCCN2[C@@H](CO)[C@@H](c3ccc(-c4ccccc4F)cc3)[C@@H]2C1	35 µM
COc1ccc(NC(=O)N2CCCCN3[C@@H](CO)[C@@H](c4ccc(C#Cc5ccccc5)cc4)[C@@H]3C2)cc1	16.2 µM
Cc1ccccc1-c1ccc(C2[C@H]3CNC[C@@H]2N3Cc2ccc3c(c2)OCO3)cc1 (some centres undefined)	27.7 µM
N#Cc1ccc(-c2ccc3c(c2)[C@@H]2[C@@H](CCN2Cc2ccc4c(c2)OCO4)[C@@H](CO)N3)cc1	32.3 µM
OC[C@@H]1[C@H](c2ccc(C#CC3CCCC3)cc2)[C@H]2CN(CCC(F)(F)F)CCCCN12	26.6 µM
Cc1ccc(-c2ccc([C@@H]3[C@@H](CO)N4CCCCN(S(=O)(=O)c5cccc(C)c5)C[C@H]34)cc2)cc1	10.7 µM
Cc1ccc(S(=O)(=O)N2[C@@H]3CNC[C@H]2C3c2ccc(-c3cccc(F)c3)cc2)cc1 (some centres undefined)	52.3 µM
Fc1cccc(-c2ccc(C3[C@H]4CNC[C@@H]3N4Cc3ccccc3F)cc2)c1 (some centres undefined)	60.5 µM
O=C(Nc1ccccc1)N1CCCCN2[C@@H](CO)[C@@H](c3ccc(C#Cc4ccccc4)cc3)[C@@H]2C1	19 µM
O=C(NC1CCCCC1)N1C[C@@H]2N[C@H](C1)C2c1ccc(-c2ccc(F)cc2)cc1 (some centres undefined)	59.7 µM
O=C(Nc1ccc(Cl)cc1)N1[C@@H]2CNC[C@H]1C2c1ccc(-c2ccccc2)cc1 (some centres undefined)	60.4 µM
OC[C@H]1[C@H](c2ccc(C#CC3CCCC3)cc2)[C@@H]2CN(CCC(F)(F)F)CCCCN12	35 µM
COc1cc(CN2C[C@@H]3N[C@H](C2)C3c2ccc(/C=C/c3ccccc3)cc2)cc(OC)c1 (some centres undefined)	9.5 µM
O=C(C[C@@H]1CC[C@@H]2[C@H](COC[C@@H](O)CN2C(=O)Nc2ccc(Cl)c(Cl)c2)O1)NC1CCC1	5.89 µM
Cc1cccc(-c2ccc([C@@H]3[C@@H]4CN(C(=O)CN(C)C)C[C@H]3N4)cc2)c1	61.5 µM
OC[C@H]1[C@@H](c2ccc(C#CC3CCCC3)cc2)[C@H]2CN(CCC(F)(F)F)CCCCN21	9.49 µM

Compound	IC50
COc1cc(CN2C[C@@H]3N[C@H](C2)C3c2ccc(-c3cccc(OC)c3)cc2)cc(OC)c1 (some centres undefined)	13 µM and 14 µM
COc1ccc(C#Cc2ccc([C@@H]3[C@@H](CO)N4CCCCN(Cc5ccccc5F)C[C@H]34)cc2)cc1	7.31 µM
O=C(c1ccc(F)cc1)N1CC(=O)N2[C@H](CO)[C@H](c3ccc(C#CCC4CCCC4)cc3)[C@H]2C1	81.6 µM
COc1ccc(C#Cc2ccc([C@@H]3[C@@H](CO)N4CCCCN(Cc5ccccc5F)C[C@@H]34)cc2)cc1	25.4 µM
COc1cc(CN2[C@@H]3CNC[C@H]2C3c2ccc(-c3ccccc3)cc2)cc(OC)c1 (some centres undefined)	14.8 µM
COc1ccccc1CN1C[C@@H]2N[C@H](C1)C2c1ccc(-c2ccccc2OC)cc1 (some centres undefined)	35.3 µM and 38.3 µM
COc1cccc(-c2ccc(C3[C@H]4CNC[C@@H]3N4Cc3cc(F)ccc3F)cc2)c1 (some centres undefined)	30 µM
Fc1ccc(F)c(CN2[C@@H]3CNC[C@H]2C3c2ccc(-c3ccccc3)cc2)c1 (some centres undefined)	44.8 µM
O=C(Nc1ccccc1)N1C[C@@H]2N[C@H](C1)C2c1ccc(-c2ccccc2)cc1 (some centres undefined)	59.7 µM
Cc1ccccc1-c1ccc(C2[C@H]3CNC[C@@H]2N3S(=O)(=O)c2ccc(Cl)cc2)cc1 (some centres undefined)	35.8 µM
Cc1ccccc1-c1ccc(C2[C@@H]3CN(C(=O)C4CCCCC4)C[C@H]2N3)cc1 (some centres undefined)	60.7 µM
Fc1cccc(-c2ccc([C@@H]3[C@@H]4CN(Cc5nccs5)C[C@H]3N4)cc2)c1	66.3 µM
O=C(C1CCCCC1)N1C[C@@H]2N[C@H](C1)C2c1ccc(-c2cccc(F)c2)cc1 (some centres undefined)	67.8 µM
O=C(C[C@H]1CC[C@@H]2[C@H](COC[C@@H](O)CN2C(=O)Nc2ccc(Cl)c(Cl)c2)O1)NC1CCC1	27.5 µM
Cc1cccc(-c2ccc(C3[C@H]4CNC[C@@H]3N4C(=O)Nc3ccc(F)cc3)cc2)c1 (some centres undefined)	30.6 µM
COc1cccc(S(=O)(=O)N2C[C@@H]3N[C@H](C2)C3c2ccc(-c3ccccc3F)cc2)c1 (some centres undefined)	26 µM
O=C(C1CC1)N1C[C@@H]2N[C@H](C1)C2c1ccc(/C=C/c2ccccc2)cc1 (some centres undefined)	70.3 µM
